“Also recorded” adds a separate entry of the source. Where a SMILES comes first, the peptide text is derived from it. The star is where a group is joined. Cbz = O=C(OCc1ccccc1)*; CH2F = FC*
How the values were obtained:
adult male Wistar rats = conditions: for lung lesions, histology / total lung collagens by hydroxyproline assay: 14 days post-bleomycin
Experimental: Adult male Wistar rats were given intratracheal instillations of 8 U/kg bleomycin sulfate (BLEO) or sterile saline. […] Lung fibrosis was assessed by picrosirius red (PR) quantitation of lung collagen and by hydroxyproline (HP) assay at 14 days after BLEO administration. At the same time point, fragmented DNA in lung epithelial cells was detected by in situ end labeling (ISEL).
Animals and Induction of Pulmonary Fibrosis. Forty adult male Wistar rats, 175-200 grams, were divided into four groups; three groups received a single intratracheal instillation of 8 units per kilogram of bleomycin sulfate (BLEO) in sterile saline. Two days before the administration of BLEO, one group received captopril in the drinking water at a concentration of 500 mg/liter. […] Control animals (NORM) received administrations of the vehicles only.
Immediately before sacrifice, animals were given intraperitoneal injections of sodium pentobarbital and the trachea was cannulated. The middle right lobe was ligated at the hilus, was excised distal to the ligation and was immediately frozen in liquid N2 for hydroxyproline assay of total collagen (see below). The remaining lung tissues were carefully removed and were instilled with 4% paraformaldehyde in PBS at 20 cm H2O constant pressure, then immersed in the same fixative for two hours. The fixed tissues were washed with PBS three times for 15 minutes and were then embedded in paraffin. Five-micron sections of lung were deparaffinized by passing through xylene, xylene:alcohol 1:1, 100% alcohol and 70% alcohol for 10 minutes each. Ethanol was removing by rinsing with distilled water.
In situ end-labeling (ISEL) of fragmented DNA. ISEL was conducted by a modification of the method of Mundle et al., Cell Death and Differentiation, 1: 117-122 (1994). Briefly, ethanol was removed from deparaffinized lung sections by rinsing in distilled water for at least 10 minutes. The slides were then placed in 3% hydrogen peroxide (Sigma Chemical, St. Louis, Mo.) for 30 minutes at 20° C., rinsed with PBS, and incubated with Proteinase K (Sigma Chemical, St. Louis, Mo.) in saline sodium citrate solution (SSC) (0.3 M NaCi and 30 mM sodium citrate in water, pH 7.0) for 15 minutes at 37° C. Samples were rinsed once in water, three times in 0.15 M PBS for 4 minutes each, and then incubated in SSC at 80° C. for 20 minutes. After four rinses in PBS and four rinses in Buffer A (50 mM Tris/HCl, 5 mM MgCl, 10 mM β-mercaptoethanol and 0.005% BSA in water, pH 7.5), the sections were incubated at 18° C. for two hours with ISEL solution (0.001 mM digoxigenin-dUTP, 20 U/ml DNA Polymerase 1 and 0.01 mM each of dATP, dCTP and dGTP in Buffer A). The sections were then rinsed thoroughly five times with Buffer A and three times with PBS. Detection of incorporated dUTP was achieved by incubation for two hours at 37° C. with AP-conjugated anti-digoxigenin (Boerhinger Mannheim, Indianapolis, Ind.) at a 1:400 dilution. Bound AP-antibody complexes were detected with the Fast Blue chromogen system and the sections were mounted with Fluoromount Solution (Southern Biotechnology, Birmingham, Ala.).
Identification of Collagen. Collagens were localized through staining of lung sections by the picrosirius red technique, see Pick et al., Am. J. Pathol. 134:365-371 (1989), which has absolute specificity for collagen. Briefly, sections deparaffinized with xylenes were rehydrated through a descending series of ethanols to distilled water. The hydrated sections were immersed in 0.2% aqueous phosphomolybdic acid for 2 minutes, rinsed in distilled water and then stained for 110 minutes with 0.1% Sirius Red F3BA (Pfal and Bauer, Stamford, Conn.) in saturated aqueous picric acid, pH 2.0. The sections were washed for 2 minutes in 0.01 N HCl, rinsed for 45 seconds in 70% ethanol, dehydrated in three changes of absolute alcohol, cleared in xylene and mounted in a nonaqueous mounting medium.

[1] = test system: primary alveolar epithelial cells (AEC); experiment: Bleomycin-induced apoptosis of primary AEC in vitro
Experimental: Lung Cell Isolation and Detection of Apoptosis In Vitro. Primary alveolar epithelial cells (AEC) were isolated from adult male Wistar rats as described above. The primary cells were studied at day two of culture, a time at which they are type II cell-like by accepted morphologic and biochemical criteria, see Paine et al., Am. J. Physiol. […] All cells were seeded in 24-well or 6-well chambers, and all experiments were conducted at subconfluent densities of 80-90% in serum-free Ham's F12 medium. Test reagents were diluted with Ham's F12 medium and were applied for 20 hours at 37° C. in a 5% CO2 incubator.
Detection of apoptotic cells with propidium iodide (PI) was conducted as described above, following digestion of ethanol-fixed cells with DNAse-free RNAse in PBS containing 5 ug/ml PI.
Apoptosis was detected as described above.

A549 cells = experiment: FAS-induced apoptosis (activating anti-FAS antibody CH-11) in A549 cells, ISEL / nuclear fragmentation; assay type: cell-based, human; conditions: CH-11 200 ng/ml; lisinopril 500 ng/ml, saralasin 5 mg/ml
[2] = test system: primary rat alveolar epithelial cells; experiment: Apoptosis of rat AEC induced by human lung fibroblast-conditioned media; assay type: cell-based; conditions: saralasin 50 ug/ml, DEVD-fmk 60 uM, anti-ANGII IgG 1 ug/ml
From the text: Fibroblast Isolation, Culture and Preparation of Conditioned Media. Primary human lung fibroblasts were isolated at the National Institute of Respiratory Diseases, Mexico. […] Of these, “fibrotic” lung fibroblast strains (HIPF-X, where X=patient number) were derived from patients suffering from either of two different types of interstitial lung disease (ILD): Idiopathic Pulmonary Fibrosis (IPF) and Chronic Hypersensitivity Pneumonitis (CHP). In both diseases, patients had clinical, functional and radiologic features which fulfill the diagnostic criteria for an ILD. […] Briefly, all patients had progressive dyspnea, bilateral reticulonodular images on chest roentgenogram, restrictive lung functional impairment with decreased lung volumes and compliance, and hypoxemia at rest that worsened with exercise. […] Patients with IPF had neither antecedents of any occupational or environmental exposure nor other known cause of ILD. […] Biopsies lacked granulomas, vasculitis, microorganisms, and inorganic material by polarized light microscopy.
Control fibroblasts were obtained from individuals having undergone a lobectomy for removal of a primary lung tumor. […] Lung fibroblasts from normal or fibrotic tissue were isolated by trypsin dispersion, and fibroblast strains were established in Dulbecco's modified Eagle's medium (or in Ham's F-12 medium) supplemented with 10% fetal calf serum, 200 U/ml penicillin, and 200 mg/ml streptomycin. […]
Epithelial Cell Culture and Detection of Apoptosis. […] All epithelial cell preparations were greater than 90% pure as determined by acridine orange uptake into lamellar bodies. […] Epithelial cell apoptosis was detected by the assessment, under fluorescence microscopy, of chromatin condensation and nuclear fragmentation within cytokeratin-positive cells after ethanol fixation and staining with propidium iodide. […]
The percentage increase in rat AEC apoptosis was determined by propidium iodide assay of primary alveolar epithelial cells exposed to serum-free conditioned media, see Uhal et al., Am.

SMILES | lung lesions, histology (adult male Wistar rats) | total lung collagens by hydroxyproline assay (adult male Wistar rats) | inhibition of FAS-induced apoptosis (A549 cells) | other results
COC(=O)C[C@H](NC(=O)[C@H](C)NC(=O)[C@@H](NC(=O)OCc1ccccc1)C(C)C)C(=O)CF [ZVAD-fmk, N-benzylcarboxy-Val-Ala-Asp-[O-Me]-CH2F] (Cbz-Val-Ala-Asp(OMe)-CH2F) | much less extensive | inhibited lung collagen accumulation |  | inhibition of accumulation of lung collagens (adult male Wistar rats; captopril 500 mg/liter drinking water, ZVAD-fmk 1 mg per kg daily i.p., 14 days after BLEO): 85%; inhibition of bleomycin-induced apoptosis of AEC in vitro ([1]; bleomycin 50 uM, captopril 500 ng/ml, ZVAD-fmk 60 uM, aurintricarboxylic acid 10 uM): 78%
C[C@H](CS)C(=O)N1CCC[C@H]1C(=O)O [captopril] | much less extensive | inhibited lung collagen accumulation |  | inhibition of ISEL labeling in AEC (adult male Wistar rats; 14 days after BLEO): 99%; inhibition of ISEL labeling in airway epithelial cells (adult male Wistar rats; 14 days after BLEO): 67%; inhibition at 0.5 µg/mL ([1]; Rattus norvegicus, Epithelial cell, read-out: inhibition of bleomycin-induced apoptosis of AEC in vitro): 76%
NCCCC[C@H](N[C@@H](CCc1ccccc1)C(=O)O)C(=O)N1CCC[C@H]1C(=O)O [lisinopril] |  |  | 61% | 
CNCC(=O)N[C@@H](CCCN=C(N)N)C(=O)N[C@H](C(=O)N[C@@H](Cc1ccc(O)cc1)C(=O)N[C@H](C(=O)N[C@@H](Cc1cnc[nH]1)C(=O)N1CCC[C@H]1C(=O)N[C@@H](C)C(=O)O)C(C)C)C(C)C [saralasin] |  |  | 71% | inhibition of apoptosis induced by HIPF-conditioned media [2]: completely abrogated; also recorded: eliminated

— patent publication US20030113330A1, “Methods for treating pulmonary fibrosis” (priority 1999, published 2003)
